Data set [1] can be described thus: Clearance in rat at 2 mg/kg, po or 1 mg/kg, iv. In kind it is ADME, organism-based. The settings on record: in vivo.
Data set [2] is described as follows: Selectivity ratio of IC50 for PKA to IC50 to ROCK.
A short description of data set [3]: Volume of distribution at steady state in rat at 2 mg/kg, po or 1 mg/kg, iv. In kind it is ADME, organism-based. As to conditions: in vivo, read-out: Vdss.
A short description of data set [4]: Cmax in rat at 2 mg/kg, po. The class given is ADME, organism-based. Set-up: dose 2 mg/kg, route oral. As to conditions: in vivo.
Data set [5] can be described thus: Half life in rat at 2 mg/kg, po or 1 mg/kg, iv. In kind it is ADME, organism-based. As to conditions: in vivo.
Data set [6] in a line: Inhibition of ROCK by enzyme-coupled luciferase-kinase assay.
Data set [7] in a line: Inhibition of PKA.
Data set [8] is described as follows: Inhibition of ROCK by myosin light chain phosphorylation assay.
Data set [9] can be described thus: Half life in human liver microsomes. In kind it is ADME, Microsome. Background: Liver microsomes are a subcellular fraction often used to study metabolism.
A further data set relates to Rattus norvegicus. Put plainly: AUC in rat at 2 mg/kg, po. In kind it is ADME, organism-based, Plasma. Set-up: dose 2 mg/kg, route oral. As to conditions: in vivo.
The nature of data set [10]: Oral bioavailability in rat at 2 mg/kg. The settings on record: in vivo. In kind it is ADME, organism-based.

What is called Cmax is the peak of the concentration-time curve. In general, half-life refers to the time needed for the level to fall by half in the phase considered. Read a high half-life as slow loss. One may read the IC50 as the concentration at which inhibition is half-maximal. Lower therefore signals inhibition by little substance. For orientation: AUC means concentration integrated over time. High values mean more exposure, low ones less exposure. Broadly, the bioavailability is dose-corrected exposure relative to a reference, in per cent. Read a high bioavailability as good availability. On to `CN(C)CCCNC(=O)c1ccc2c(c1)CC(c1nc3ccc(-c4ccnc(N)n4)cc3[nH]1)CO2` (configuration not stated), for which the clearance in data set [1] worked out at 27 mL/min/kg. Moreover, the Ratio IC50 in data set [2] amounted to 227. Besides, in [3], the Vd amounted to 4.6 L/kg. Further, the maximum concentration (Cmax) in data set [4] turned out to be 3 nM. The half-life is 3 h in [5] and 1.67 h in [9]. Also, the IC50 in data set [6] came out at 1.2 nM; in data set [7], 272 nM; in data set [8] it was 2700 nM. The molecule further gave an AUC in the data set on Rattus norvegicus of 0.01 µM·h. In data set [10], the bioavailability was less than 1%.

The molecule `Nc1nccc(-c2ccc3nc(C4COc5ccc(C(=O)NCCc6cccnc6)cc5C4)[nH]c3c2)n1` (configuration not stated) had a clearance in [1] of 58 mL/min/kg. The Ratio IC50 in data set [2] was 1770. Further, the Vd in [3] turned out to be 5.9 L/kg. In [4], this molecule showed a Cmax of 5 nM. Further, the half-life in data set [5] was 3.6 h; in data set [9], 0.025 h. Further, the IC50 in data set [6] is 0.25 nM; in data set [7], 442 nM; in [8], 250 nM. Besides, the exposure (AUC) in the data set on Rattus norvegicus came out at 0.08 µM·h. The molecule further showed a bioavailability in data set [10] of 6%.

Values taken from ChEMBL document CHEMBL1155401, “The development of benzimidazoles as selective rho kinase inhibitors” (Bioorg Med Chem Lett, 2010).
